Measured values from patent US9809574B2, “Isoindoline or isoquinoline compounds, a process for their preparation and pharmaceutical compositions containing them” (LES LABORATOIRES SERVIER, priority 2013, dated 2017).
Structures can show the parent of a compound that is named as a salt.

Legend:
Bcl-2 protein = Bcl-2 protein (histag-Bcl-2, UniProtKB P10415) (Homo sapiens (Human), UniProt P10415); assay: Inhibition of Bcl-2 by the fluorescence polarisation technique; assay type: binding; settings: fluorescence polarisation test; incubation for 2 hours; read-out: IC50 (nM) Bcl-2 FP
Text: For partial inhibitors, the percentage fluorescence polarisation inhibition for a given concentration of the test compound is indicated.

[1] = test system: RS4; 11 leukaemia cell line; assay: In vitro cytotoxicity, Microculture Tetrazolium Assay (MTT); assay type: cell-based; settings: Homo sapiens, 11 cells exposed for 48 hours
Description: The cytotoxicity studies were carried out on the RS4; 11 leukaemia cell line and on H146 small Cell Lung Carcinoma cell line. The cells are distributed onto microplates and exposed to the test compounds for 48 hours. The cell viability is then quantified by a colorimetric assay, the Microculture Tetrazolium Assay (Cancer Res., 1987, 47, 939-942).

Chain of Bcl-2 protein (P10415 whole entry): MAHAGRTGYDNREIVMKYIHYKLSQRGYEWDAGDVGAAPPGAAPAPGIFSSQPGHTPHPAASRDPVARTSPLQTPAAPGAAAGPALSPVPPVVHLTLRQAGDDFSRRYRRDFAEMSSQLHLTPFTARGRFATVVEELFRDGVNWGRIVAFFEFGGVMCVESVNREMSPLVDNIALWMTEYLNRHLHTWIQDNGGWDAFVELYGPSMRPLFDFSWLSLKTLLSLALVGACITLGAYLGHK

Work on `Cc1c(C(=O)N(C)c2ccc(O)cc2)cc(-c2cc3c(cc2C(=O)N2Cc4ccccc4C[C@H]2C)CN(C(=O)Cc2ccc(C#N)cc2)CC3)n1C` [Example 145, 5-{2-[2-(4-Cyanophenyl)acetyl]-7-[(3R)-3-methyl-1,2,3,4-tetrahydroisoquinoline-2-carbonyl]-1,2,3,4-tetrahydroisoquinolin-6-yl}-N-(4-hydroxyphenyl)-N,1,2-trimethyl-1H-pyrrole-3-carboxamide] yielded an IC50 (Bcl-2 protein) of 4.2 nM and an IC50 [1] of 5.5 nM.
In the case of `Cc1c(C(=O)N(C)c2ccccc2)cc(-c2cc3c(cc2C(=O)N2Cc4ccccc4C[C@H]2C)CN(C(=O)Oc2cccc(CCC(=O)N(C)C)c2)CC3)n1C` [Example 787, 3-[2-(Dimethylcarbamoyl)ethyl]phenyl 6-{1,5-dimethyl-4-[methyl(phenyl)carbamoyl]-1H-pyrrol-2-yl}-7-[(3R)-3-methyl-1,2,3,4-tetrahydroisoquinoline-2-carbonyl]-1,2,3,4-tetrahydroisoquinoline-2-carboxylate], the IC50 (Bcl-2 protein) is reported as 5 nM and the IC50 [1] is reported as 6.2 nM.
`Cc1c(C(=O)N(C)c2ccc(O)cc2)cc(-c2cc3c(cc2C(=O)N2Cc4ccccc4C[C@H]2CN2CCOCC2)CN(C(=O)Oc2ccc4ccccc4c2)CC3)n1C` [Example 574, Naphthalen-2-yl 6-{4-[(4-hydroxyphenyl)(methyl)carbamoyl]-1,5-dimethyl-1H-pyrrol-2-yl}-7-[(3S)-3-(morpholin-4-ylmethyl)-1,2,3,4-tetrahydroisoquinoline-2-carbonyl]-1,2,3,4-tetrahydroisoquinoline-2-carboxylate] gave an IC50 (Bcl-2 protein) of 8.8 nM and an IC50 [1] of 11 nM.
`CCN(C(=O)c1cc(-c2cc3c(cc2C(=O)N2Cc4ccccc4C[C@H]2CN2CCOCC2)CN(C(=O)Cc2ccccc2)CC3)n(C)c1C)c1ccc(O)cc1` [Example 780, N-Ethyl-N-(4-hydroxyphenyl)-1,2-dimethyl-5-{7-[(3S)-3-(morpholin-4-ylmethyl)-1,2,3,4-tetrahydroisoquinoline-2-carbonyl]-2-(2-phenylacetyl)-1,2,3,4-tetrahydroisoquinolin-6-yl}-1H-pyrrole-3-carboxamide] gave an IC50 (Bcl-2 protein) of 3.5 nM and an IC50 [1] of 17 nM.
In the case of `CN(C(=O)c1cc(-c2cc3c(cc2C(=O)N2Cc4ccccc4C[C@H]2CN2CCOCC2)CNCC3)n2c1CCCC2)c1ccc(O)cc1` [Example 2, N-(4-Hydroxyphenyl)-N-methyl-3-{7-[(3S)-3-(morpholin-4-ylmethyl)-1,2,3,4-tetrahydroisoquinoline-2-carbonyl]-1,2,3,4-tetrahydroisoquinolin-6-yl}-5,6,7,8-tetrahydroindolizine-1-carboxamide dihydrochloride], the IC50 (Bcl-2 protein) is reported as 397 nM and the IC50 [1] is reported as > 1880 nM.
Work on `C[C@@H]1Cc2ccccc2CN1C(=O)c1cc2c(cc1-c1cc(C(=O)N(C)c3ccc(O)cc3)c3n1CCCC3)CN(C(=O)NCc1ccccc1)C2` [Example 61, N-Benzyl-5-{1-[(4-hydroxyphenyl)(methyl)carbamoyl]-5,6,7,8-tetrahydroindolizin-3-yl}-6-[(3R)-3-methyl-1,2,3,4-tetrahydroisoquinoline-2-carbonyl]-2,3-dihydro-1H-isoindole-2-carboxamide] yielded an IC50 (Bcl-2 protein) of 4.4 nM and an IC50 [1] of 85 nM.
Compound `CN(C(=O)c1cc(-c2cc3c(cc2C(=O)N2Cc4ccccc4C[C@H]2CN2CCOCC2)CN(S(=O)(=O)Cc2ccccc2)C3)n2c1CCCC2)c1ccc(O)cc1` [Example 38, N-(4-Hydroxyphenyl)-N-methyl-3-{6-[(3S)-3-(morpholin-4-ylmethyl)-1,2,3,4-tetrahydroisoquinoline-2-carbonyl]-2-phenylmethanesulfonyl-2,3-dihydro-1H-isoindol-5-yl}-5,6,7,8-tetrahydroindolizine-1-carboxamide] has an IC50 (Bcl-2 protein) of 23 nM and an IC50 [1] of 532 nM.
In the case of `C[C@@H]1Cc2ccccc2CN1C(=O)c1cc2c(cc1-c1cc(C(=O)N(C)c3ccc(O)cc3)c3n1CCCC3)CN(C(=O)COc1ccc(Cl)cc1)C2` [Example 49, 3-{2-[2-(4-Chlorophenoxy)acetyl]-6-[(3R)-3-methyl-1,2,3,4-tetrahydroisoquinoline-2-carbonyl]-2,3-dihydro-1H-isoindol-5-yl}-N-(4-hydroxyphenyl)-N-methyl-5,6,7,8-tetrahydroindolizine-1-carboxamide], the IC50 (Bcl-2 protein) is reported as 23 nM and the IC50 [1] is reported as 58 nM.
`C[C@@H]1Cc2ccccc2CN1C(=O)c1cc2c(cc1-c1cc(C(=O)N(C)c3ccc(O)cc3)c3n1CCCC3)CCN(C(=O)c1ccccc1)C2` [Example 35, 3-{2-Benzoyl-7-[(3R)-3-methyl-1,2,3,4-tetrahydroisoquinoline-2-carbonyl]-1,2,3,4-tetrahydroisoquinolin-6-yl}-N-(4-hydroxyphenyl)-N-methyl-5,6,7,8-tetrahydroindolizine-1-carboxamide] was tested, and the IC50 (Bcl-2 protein) was 4.7 nM and the IC50 [1] was 8.5 nM.
Compound `Cc1c(C(=O)N(C)c2ccc(O)cc2)cc(-c2cc3c(cc2C(=O)N2Cc4ccccc4C[C@H]2CN2CCOCC2)CN(C(=O)Oc2ccc(Cl)cc2)CC3)n1C` [Example 140, 4-Chlorophenyl 6-{4-[(4-hydroxyphenyl)(methyl)carbamoyl]-1,5-dimethyl-1H-pyrrol-2-yl}-7-[(3S)-3-(morpholin-4-ylmethyl)-1,2,3,4-tetrahydroisoquinoline-2-carbonyl]-1,2,3,4-tetrahydroisoquinoline-2-carboxylate] has an IC50 (Bcl-2 protein) of 6.6 nM and an IC50 [1] of 4 nM.
Work on `C[C@@H]1Cc2ccccc2CN1C(=O)c1cc2c(cc1-c1cc(C(=O)N(c3ccccc3)c3ccc(O)cc3)c3n1CCCC3)CCN(C(=O)Cc1ccccc1)C2` [Example 134, N-(4-hydroxyphenyl)-3-{7-[(3R)-3-methyl-1,2,3,4-tetrahydroisoquinoline-2-carbonyl]-2-(2-phenylacetyl)-1,2,3,4-tetrahydroisoquinolin-6-yl}-N-phenyl-5,6,7,8-tetrahydroindolizine-1-carboxamide] yielded an IC50 (Bcl-2 protein) of 4.3 nM and an IC50 [1] of 2 nM.
With `CN(C(=O)c1cc(-c2cc3c(cc2C(=O)N2Cc4ccccc4C[C@H]2CN2CCOCC2)CN(S(=O)(=O)c2cccnc2)C3)n2c1CCCC2)c1ccc(O)cc1` [Example 22, N-(4-Hydroxyphenyl)-N-methyl-3-{6-[(3S)-3-(morpholin-4-ylmethyl)-1,2,3,4-tetrahydroisoquinoline-2-carbonyl]-2-(pyridine-3-sulfonyl)-2,3-dihydro-1H-isoindol-5-yl}-5,6,7,8-tetrahydroindolizine-1-carboxamide hydrochloride] the IC50 (Bcl-2 protein) was 70 nM and the IC50 [1] was > 150 nM.
`C[C@@H]1Cc2ccccc2CN1C(=O)c1cc2c(cc1-c1cc(C(=O)N(C)c3ccc(O)cc3)c3n1CCCC3)CCN(C(=O)Cc1ccc(CN(C)C)cc1)C2` [Example 144, 3-[2-(2-{4-[(Dimethylamino)methyl]phenyl}acetyl)-7-[(3R)-3-methyl-1,2,3,4-tetrahydroisoquinoline-2-carbonyl]-1,2,3,4-tetrahydroisoquinolin-6-yl]-N-(4-hydroxyphenyl)-N-methyl-5,6,7,8-tetrahydroindolizine-1-carboxamide] was tested, and the IC50 (Bcl-2 protein) was 4.8 nM and the IC50 [1] was 82 nM.
Compound `Cc1c(C(=O)N(C)c2ccc(O)cc2)cc(-c2cc3c(cc2C(=O)N2Cc4ccccc4C[C@H]2CN2CCOCC2)CN(C(=O)Oc2ccc(C#N)cc2)CC3)n1C` [Example 146, 4-Cyanophenyl 6-{4-[(4-hydroxyphenyl)(methyl)carbamoyl]-1,5-dimethyl-1H-pyrrol-2-yl}-7-[(3S)-3-(morpholin-4-ylmethyl)-1,2,3,4-tetrahydroisoquinoline-2-carbonyl]-1,2,3,4-tetrahydroisoquinoline-2-carboxylate] has an IC50 (Bcl-2 protein) of 2.8 nM and an IC50 [1] of 6 nM.
For `CCCN(C(=O)c1cc(-c2cc3c(cc2C(=O)N2Cc4ccccc4C[C@H]2CN2CCOCC2)CN(C(=O)Cc2ccccc2)CC3)n(C)c1C)c1ccc(O)cc1` [Example 781, N-(4-Hydroxyphenyl)-1,2-dimethyl-5-{7-[(3S)-3-(morpholin-4-ylmethyl)-1,2,3,4-tetrahydroisoquinoline-2-carbonyl]-2-(2-phenylacetyl)-1,2,3,4-tetrahydroisoquinolin-6-yl}-N-propyl-1H-pyrrole-3-carboxamide], the IC50 (Bcl-2 protein) was 2.6 nM and the IC50 [1] was 9.7 nM.
Work on `Cc1c(C(=O)N(C)c2ccc(O)cc2)cc(-c2cc3c(cc2C(=O)N2Cc4ccccc4C[C@H]2C)CN(C(=O)[C@H](O)c2ccccc2)C3)n1C` [Example 175, N-(4-Hydroxyphenyl)-5-(2-[(2R)-2-hydroxy-2-phenylacetyl]-6-{[(3R)-3-methyl-3,4-dihydroisoquinolin-2(1H)-yl]carbonyl}-2,3-dihydro-1H-isoindol-5-yl)-N,1,2-trimethyl-1H-pyrrole-3-carboxamide] yielded an IC50 (Bcl-2 protein) of 4.2 nM and an IC50 [1] of 90 nM.
`Cc1c(C(=O)N(C)c2ccc(O)cc2)cc(-c2cc3c(cc2C(=O)N2Cc4ccccc4C[C@H]2CCCN2CCOCC2)CN(C(=O)Oc2ccccc2)CC3)n1C` [Example 808, Phenyl 6-{4-[(4-hydroxyphenyl)(methyl)carbamoyl]-1,5-dimethyl-1H-pyrrol-2-yl}-7-[(3R)-3-[3-(morpholin-4-yl)propyl]-1,2,3,4-tetrahydroisoquinoline-2-carbonyl]-1,2,3,4-tetrahydroisoquinoline-2-carboxylate] was tested, and the IC50 (Bcl-2 protein) was 2.7 nM and the IC50 [1] was 1.6 nM.
Work on `Cc1c(C(=O)N(C)c2ccc(O)cc2)cc(-c2cc3c(cc2C(=O)N2Cc4ccccc4C[C@H]2C)CN(C(=O)[C@H](N)c2ccccc2)C3)n1C` [Example 174, 5-(2-[(2R)-2-Amino-2-phenylacetyl]-6-{[(3R)-3-methyl-3,4-dihydroisoquinolin-2(1H)-yl]carbonyl}-2,3-dihydro-1H-isoindol-5-yl)-N-(4-hydroxyphenyl)-N,1,2-trimethyl-1H-pyrrole-3-carboxamide] yielded an IC50 (Bcl-2 protein) of 5.9 nM and an IC50 [1] of 407 nM.
For `C[C@@H]1Cc2ccccc2CN1C(=O)c1cc2c(cc1-c1cc(C(=O)N(C)c3ccc(O)cc3)c3n1CCCC3)CN(C(=O)OCc1ccccc1)C2` [Example 62, Benzyl 5-{1-[(4-hydroxyphenyl)(methyl)carbamoyl]-5,6,7,8-tetrahydroindolizin-3-yl}-6-[(3R)-3-methyl-1,2,3,4-tetrahydroisoquinoline-2-carbonyl]-2,3-dihydro-1H-isoindole-2-carboxylate], the IC50 (Bcl-2 protein) was 20 nM and the IC50 [1] was 113 nM.
